Several values for one entry are separate records, joined by “and”; a condition that tells them apart may be missing. Identical values can stand only once. Inconclusive results and toxic doses are left out. Cut-off read from the data, not from the text of the source: active = T/C of 150% or more; inactive = T/C below 125%.
Tested on: L1210 leukemia ip in BDF1 mice, survival T/C
Test: NCI In Vivo Anticancer Drug Screen. Data for tumor model L1210 Leukemia (intraperitoneal) in B6D2F1 (BDF1) mice
Settings: endpoint: mean survival time, higher = longer survival
Method in brief: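 Read-out is survival time, reported as the treated-group measurement over the vehicle-control measurement.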

[1] = dose: 100.0 mg/kg/injection, schedule: Q01DX001 (ip), vehicle: saline
[2] = dose: 200.0 mg/kg/injection, schedule: Q01DX001 (ip), vehicle: saline
[3] = dose: 400.0 mg/kg/injection, schedule: Q01DX001 (ip), vehicle: saline
[4] = dose: 100.0 mg/kg/injection, schedule: Q04DX003 (ip), vehicle: saline
[5] = dose: 200.0 mg/kg/injection, schedule: Q04DX003 (ip), vehicle: saline
[6] = dose: 100.0 mg/kg/injection, schedule: Q04DX003 (ip), vehicle: saline with Tween-80
[7] = dose: 200.0 mg/kg/injection, schedule: Q04DX003 (ip), vehicle: saline with Tween-80
[8] = dose: 400.0 mg/kg/injection, schedule: Q04DX003 (ip), vehicle: saline with Tween-80
[9] = dose: 100.0 mg/kg/injection, schedule: Q01DX001 (ip), vehicle: carboxymethylcellulose (CMC)
[10] = dose: 200.0 mg/kg/injection, schedule: Q01DX001 (ip), vehicle: carboxymethylcellulose (CMC)
[11] = dose: 400.0 mg/kg/injection, schedule: Q01DX001 (ip), vehicle: carboxymethylcellulose (CMC)
[12] = dose: 100.0 mg/kg/injection, schedule: Q04DX003 (ip), vehicle: Klucel (hydroxypropylcellulose) (HPC)
[13] = dose: 200.0 mg/kg/injection, schedule: Q04DX003 (ip), vehicle: Klucel (hydroxypropylcellulose) (HPC)
[14] = dose: 400.0 mg/kg/injection, schedule: Q04DX003 (ip), vehicle: Klucel (hydroxypropylcellulose) (HPC)

Measured: T/C

Cc1c2cnccc2c(C)c2c1[nH]c1ccccc12
inactive: dose: 25.0 mg/kg/injection, schedule: Q01DX Z (ip), vehicle: saline 104 % of control | dose: 50.0 mg/kg/injection, schedule: Q01DX Z (ip), vehicle: saline 102 % of control | dose: 75.0 mg/kg/injection, schedule: Q01DX Z (ip), vehicle: saline 100 % of control | [1] 97 % of control | dose: 100.0 mg/kg/injection, schedule: Q01DX Z (ip), vehicle: saline 102 % of control and 92 % of control | dose: 150.0 mg/kg/injection, schedule: Q01DX Z (ip), vehicle: saline 90 % of control | [2] 100 % of control | dose: 225.0 mg/kg/injection, schedule: Q01DX Z (ip), vehicle: saline 93 % of control | dose: 335.0 mg/kg/injection, schedule: Q01DX Z (ip), vehicle: saline 97 % of control and 98 % of control | [3] 100 % of control | dose: 500.0 mg/kg/injection, schedule: Q01DX Z (ip), vehicle: saline 113 % of control

Cc1ccc(Nc2cc(=S)nc(N)[nH]2)cc1
inactive: dose: 100.0 mg/kg/injection, schedule: Q01DX Z (ip), vehicle: methylcellulose (MC) 93 % of control | dose: 200.0 mg/kg/injection, schedule: Q01DX Z (ip), vehicle: methylcellulose (MC) 86 % of control

CNC1C(O)C2CCC(C2)C1c1ccccc1 (centres undefined)
inactive: dose: 75.0 mg/kg/injection, schedule: Q01DX001 (ip), vehicle: Klucel (hydroxypropylcellulose) (HPC) 96 % of control | dose: 150.0 mg/kg/injection, schedule: Q01DX001 (ip), vehicle: Klucel (hydroxypropylcellulose) (HPC) 105 % of control | dose: 300.0 mg/kg/injection, schedule: Q01DX001 (ip), vehicle: Klucel (hydroxypropylcellulose) (HPC) 98 % of control

C[As](C)[Se]CC1OC(O)C(O)C(O)C1O (centres undefined)
inactive: dose: 50.0 mg/kg/injection, schedule: Q01DX009 (ip), vehicle: saline with Tween-80 104 % of control

COc1ccc(CC(=O)NNC(=O)C2(C(C)C)OC3(O)CCCCN3C2=O)cc1OC (centres undefined)
inactive: dose: 25.0 mg/kg/injection, schedule: Q04DX003 (ip), vehicle: saline 101 % of control | dose: 50.0 mg/kg/injection, schedule: Q04DX003 (ip), vehicle: saline 92 % of control | [4] 106 % of control | [5] 92 % of control

CCCN(CCC)c1ccc(/C=C\c2ccncc2)cc1
inactive: dose: 100.0 mg/kg/injection, schedule: Q01DX001 (ip), vehicle: Klucel (hydroxypropylcellulose) (HPC) 98 % of control | dose: 200.0 mg/kg/injection, schedule: Q01DX001 (ip), vehicle: Klucel (hydroxypropylcellulose) (HPC) 103 % of control | dose: 400.0 mg/kg/injection, schedule: Q01DX001 (ip), vehicle: Klucel (hydroxypropylcellulose) (HPC) 98 % of control

[I][Hg][I].c1ccc(P(N2CCCCC2)N2CCCCC2)cc1
inactive: dose: 100.0 mg/kg/injection, schedule: Q01DX009 (ip), vehicle: Klucel (hydroxypropylcellulose) (HPC) 102 % of control | dose: 200.0 mg/kg/injection, schedule: Q01DX009 (ip), vehicle: Klucel (hydroxypropylcellulose) (HPC) 97 % of control | dose: 400.0 mg/kg/injection, schedule: Q01DX009 (ip), vehicle: Klucel (hydroxypropylcellulose) (HPC) 97 % of control

COc1ccccc1SC(=O)N(C)C
inactive: dose: 100.0 mg/kg/injection, schedule: Q01DX009 (ip), vehicle: saline with Tween-80 102 % of control | [6] 105 % of control | dose: 200.0 mg/kg/injection, schedule: Q01DX009 (ip), vehicle: saline with Tween-80 98 % of control | [7] 96 % of control | dose: 400.0 mg/kg/injection, schedule: Q01DX009 (ip), vehicle: saline with Tween-80 93 % of control | [8] 113 % of control

O=C(CBr)CC(O)(C(F)(F)F)C(F)(F)F
inactive: dose: 3.0 mg/kg/injection, schedule: Q01DX009 (ip), vehicle: saline 93 % of control | dose: 6.0 mg/kg/injection, schedule: Q01DX009 (ip), vehicle: saline 103 % of control | dose: 12.0 mg/kg/injection, schedule: Q01DX009 (ip), vehicle: saline 103 % of control

[N-]=[N+]=Nc1ccc(S(=O)(=O)Nc2ncccn2)cc1
inactive: [9] 113 % of control | dose: 100.0 mg/kg/injection, schedule: Q01DX009 (ip), vehicle: carboxymethylcellulose (CMC) 93 % of control | dose: 100.0 mg/kg/injection, schedule: Q04DX002 (ip), vehicle: carboxymethylcellulose (CMC) 100 % of control and 108 % of control | dose: 100.0 mg/kg/injection, schedule: Q04DX003 (ip), vehicle: carboxymethylcellulose (CMC) 104 % of control | [10] 108 % of control | dose: 200.0 mg/kg/injection, schedule: Q01DX009 (ip), vehicle: carboxymethylcellulose (CMC) 88 % of control | dose: 200.0 mg/kg/injection, schedule: Q04DX002 (ip), vehicle: carboxymethylcellulose (CMC) 102 % of control and 103 % of control | dose: 200.0 mg/kg/injection, schedule: Q04DX003 (ip), vehicle: carboxymethylcellulose (CMC) 96 % of control | [11] 90 % of control | dose: 400.0 mg/kg/injection, schedule: Q01DX009 (ip), vehicle: carboxymethylcellulose (CMC) 98 % of control | dose: 400.0 mg/kg/injection, schedule: Q04DX002 (ip), vehicle: carboxymethylcellulose (CMC) 103 % of control and 107 % of control | dose: 400.0 mg/kg/injection, schedule: Q04DX003 (ip), vehicle: carboxymethylcellulose (CMC) 110 % of control

O=C(NCCCCCCCCCCNC(=O)C(Cl)Cl)C(Cl)Cl
inactive: [12] 98 % of control | [13] 90 % of control | [14] 105 % of control

C=C1CC2CC(C)CCC2OC1=O (centres undefined)
inactive: [1] 102 % of control | [2] 98 % of control | [3] 98 % of control

COc1nc(N)c(C(N)=O)cc1C#N
inactive: dose: 87.0 mg/kg/injection, schedule: Q04DX003 (ip), vehicle: Klucel (hydroxypropylcellulose) (HPC) 97 % of control

Nc1cc2c(cc1I)-c1ccc(Br)cc1C2
inactive: [9] 102 % of control | [10] 107 % of control | [11] 98 % of control

Brc1ccc(/C(=N/Nc2ccccc2)Oc2ccccc2)cc1
inactive: [6] 94 % of control | [7] 94 % of control | [8] 102 % of control

CCS(=O)CC
inactive: dose: 100.0 mg/kg/injection, schedule: Q04DX002 (ip), vehicle: saline 106 % of control | [4] 101 % of control and 108 % of control | dose: 200.0 mg/kg/injection, schedule: Q04DX002 (ip), vehicle: saline 89 % of control | [5] 94 % of control and 97 % of control | dose: 400.0 mg/kg/injection, schedule: Q04DX002 (ip), vehicle: saline 95 % of control | dose: 400.0 mg/kg/injection, schedule: Q04DX003 (ip), vehicle: saline 101 % of control and 104 % of control

COc1cc(C=O)cc(OC)c1OC
inactive: [12] 93 % of control | [13] 93 % of control | [14] 87 % of control

C=C(Br)CNS(=O)(=O)c1ccc(OC)cc1
inactive: [6] 92 % of control | [7] 101 % of control | [8] 94 % of control

CC(=O)CC(=O)N1CCCCCC1
inactive: dose: 100.0 mg/kg/injection, schedule: Q01DX009 (ip), vehicle: gum acacia 93 % of control | [6] 98 % of control | dose: 200.0 mg/kg/injection, schedule: Q01DX009 (ip), vehicle: gum acacia 98 % of control | [7] 95 % of control | dose: 400.0 mg/kg/injection, schedule: Q01DX009 (ip), vehicle: gum acacia 101 % of control | [8] 102 % of control
